The experiment deals with P388 leukemia ip, CD2F1 mice, survival T/C. Kind of experiment: NCI In Vivo Anticancer Drug Screen. Data for tumor model P388 Leukemia (intraperitoneal) in CD2F1 (CDF1) mice. The conditions noted are these: endpoint: median survival time, higher = longer survival. An outline of the steps:
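Mice carrying the transplanted tumor received test compound or vehicle. Survival was recorded in each group, and the value is the treated-group measurement divided by that of the vehicle-treated control group.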

Setting [1] is: dose: 25.0 mg/kg/injection, schedule: Q01DX009 (ip), vehicle: Klucel (hydroxypropylcellulose) (HPC).
Where [2] appears, read: dose: 50.0 mg/kg/injection, schedule: Q01DX009 (ip), vehicle: saline with Tween-80.
Where [3] appears, read: dose: 50.0 mg/kg/injection, schedule: Q04DX003 (ip), vehicle: saline with Tween-80.
Setting [4] is: dose: 100.0 mg/kg/injection, schedule: Q04DX003 (ip), vehicle: saline with Tween-80.
Setting [5] is: dose: 50.0 mg/kg/injection, schedule: Q01DX009 (ip), vehicle: Klucel (hydroxypropylcellulose) (HPC).
The mark [6] stands for this setting: dose: 100.0 mg/kg/injection, schedule: Q01DX009 (ip), vehicle: Klucel (hydroxypropylcellulose) (HPC).
Where [7] appears, read: dose: 60.0 mg/kg/injection, schedule: Q01DX005 (ip), vehicle: saline with Tween-80.
Setting [8] is: dose: 120.0 mg/kg/injection, schedule: Q01DX005 (ip), vehicle: saline with Tween-80.
Setting [9] is: dose: 240.0 mg/kg/injection, schedule: Q01DX005 (ip), vehicle: saline with Tween-80.
[10] abbreviates: dose: 50.0 mg/kg/injection, schedule: Q01DX009 (ip), vehicle: saline.
Where [11] appears, read: dose: 50.0 mg/kg/injection, schedule: Q01DX005 (ip), vehicle: saline with Tween-80.
[12] abbreviates: dose: 100.0 mg/kg/injection, schedule: Q01DX005 (ip), vehicle: saline with Tween-80.

Each structure is given as a SMILES string. Inconclusive results and toxic doses are left out.

Turning to `Oc1ccc(/C=N/NC(=S)NN2CCOCC2)nc1`, the T/C (dose: 3.12 mg/kg/injection, schedule: Q01DX009 (ip), vehicle: Klucel (hydroxypropylcellulose) (HPC)) was 110 % of control; the T/C (dose: 6.25 mg/kg/injection, schedule: Q01DX009 (ip), vehicle: Klucel (hydroxypropylcellulose) (HPC)) is 109 % of control; the T/C (dose: 12.5 mg/kg/injection, schedule: Q01DX009 (ip), vehicle: Klucel (hydroxypropylcellulose) (HPC)) is 104 % of control; the T/C under setting [1] was 111 % of control.

Take `NCCCO[C@H]1CO[C@H]2[C@@H]1OC[C@H]2OCCCN`: the T/C runs as follows: (dose: 50.0 mg/kg/injection, schedule: Q01DX005 (ip), vehicle: saline) 100 % of control; (dose: 100.0 mg/kg/injection, schedule: Q01DX005 (ip), vehicle: saline) 102 % of control.

For `CN(C)P(=O)(N(C)C)N1CCCCCC1`, the T/C under setting [2] is 102 % of control; the T/C (dose: 100.0 mg/kg/injection, schedule: Q01DX009 (ip), vehicle: saline with Tween-80) is 106 % of control; the T/C (dose: 200.0 mg/kg/injection, schedule: Q01DX009 (ip), vehicle: saline with Tween-80) is 94 % of control.

For the compound `CC1=CN(C(=O)c2ccccc2)C(C#N)N(C(=O)c2ccccc2)C1C#N` (configuration not stated), the T/C was 100 % of control (dose: 60.0 mg/kg/injection, schedule: Q01DX005 (ip), vehicle: Klucel (hydroxypropylcellulose) (HPC)); 103 % of control (dose: 120.0 mg/kg/injection, schedule: Q01DX005 (ip), vehicle: Klucel (hydroxypropylcellulose) (HPC)); 102 % of control (dose: 240.0 mg/kg/injection, schedule: Q01DX005 (ip), vehicle: Klucel (hydroxypropylcellulose) (HPC)).

For `O=NN1CCN(N=O)CC1`, the T/C (dose: 25.0 mg/kg/injection, schedule: Q01DX009 (ip), vehicle: saline with Tween-80) was 113 % of control; the T/C under setting [2] is 109 % of control; the T/C under setting [3] is 109 % of control; the T/C under setting [4] is 104 % of control.

For the compound `CN(C(=O)c1ccc(N)cc1)C1CCN(C2CCCCC2)C1` (configuration not stated), the T/C under setting [5] was 103 % of control and the T/C under setting [6] is 101 % of control.

Regarding `COc1cc(C(Nc2ncccn2)c2cc3c(cc2O)OCO3)cc(OC)c1O` (configuration not stated), the T/C reads like this: under setting [7], 105 % of control; under setting [8], 90 % of control; under setting [9], 90 % of control.

As to `O=[N+]([O-])c1cc(C(F)(F)F)ccc1F`, the T/C runs as follows: under setting [1], 106 % of control; under setting [5], 106 % of control.

Take `O/N=C\c1ccc(/C=N/O)cc1`: the T/C is, setting by setting: under setting [3], 100 % of control; under setting [4], 100 % of control; (dose: 200.0 mg/kg/injection, schedule: Q04DX003 (ip), vehicle: saline with Tween-80) 95 % of control.

As to `CCOC(=O)C(C)Oc1ccc(Cl)cc1` (configuration not stated), the T/C reads like this: (dose: 25.0 mg/kg/injection, schedule: Q01DX009 (ip), vehicle: water) 99 % of control; (dose: 50.0 mg/kg/injection, schedule: Q01DX009 (ip), vehicle: water) 102 % of control; (dose: 100.0 mg/kg/injection, schedule: Q01DX009 (ip), vehicle: water) 102 % of control; (dose: 200.0 mg/kg/injection, schedule: Q01DX009 (ip), vehicle: water) 98 % of control; (dose: 400.0 mg/kg/injection, schedule: Q01DX009 (ip), vehicle: water) 107 % of control.

Consider `COc1cc2cc(-c3ccc(Cl)c(Cl)c3)[n+](C)cc2cc1OC`, for which the T/C runs as follows: (dose: 12.5 mg/kg/injection, schedule: Q01DX009 (ip), vehicle: saline) 106 % of control; (dose: 25.0 mg/kg/injection, schedule: Q01DX009 (ip), vehicle: saline) 94 % of control; under setting [10], 98 % of control.

Regarding `O=C1c2ccccc2C(=O)c2c3c(cc(NCCNCCO)c21)N(CCO)CCN3`, the T/C is 104 % of control (dose: 6.25 mg/kg/injection, schedule: Q01DX009 (ip), vehicle: DMSO); 123 % of control (dose: 12.5 mg/kg/injection, schedule: Q01DX009 (ip), vehicle: DMSO); 155 % of control (dose: 25.0 mg/kg/injection, schedule: Q01DX009 (ip), vehicle: DMSO); 163 % of control (dose: 50.0 mg/kg/injection, schedule: Q01DX009 (ip), vehicle: DMSO); 101 % of control (dose: 100.0 mg/kg/injection, schedule: Q01DX009 (ip), vehicle: DMSO); 93 % of control (dose: 200.0 mg/kg/injection, schedule: Q01DX009 (ip), vehicle: DMSO).

Regarding `CCCCN1CCC2(C)c3cc(O)ccc3CC1C2CC` (configuration not stated), the T/C is 101 % of control (dose: 7.5 mg/kg/injection, schedule: Q01DX005 (ip), vehicle: Klucel (hydroxypropylcellulose) (HPC)); 100 % of control (dose: 15.0 mg/kg/injection, schedule: Q01DX005 (ip), vehicle: Klucel (hydroxypropylcellulose) (HPC)); 97 % of control (dose: 30.0 mg/kg/injection, schedule: Q01DX005 (ip), vehicle: Klucel (hydroxypropylcellulose) (HPC)).

On to `CC1(C)N=C(N)N=C(N)N1c1cccc(C(=O)O)c1`, for which the T/C is, setting by setting: (dose: 25.0 mg/kg/injection, schedule: Q01DX005 (ip), vehicle: Klucel (hydroxypropylcellulose) (HPC)) 117 % of control; (dose: 50.0 mg/kg/injection, schedule: Q01DX005 (ip), vehicle: Klucel (hydroxypropylcellulose) (HPC)) 100 % of control; (dose: 100.0 mg/kg/injection, schedule: Q01DX005 (ip), vehicle: Klucel (hydroxypropylcellulose) (HPC)) 107 % of control.

As to `CN1CCN=C1c1ccc(NC(=O)c2ccc(C(=O)Nc3ccc(C4=NCCN4C)cc3)cc2)cc1`, the T/C runs as follows: (dose: 0.4 mg/kg/injection, schedule: Q01DX009 (ip), vehicle: saline with Tween-80) 108 % of control; (dose: 3.0 mg/kg/injection, schedule: Q01DX009 (ip), vehicle: saline with Tween-80) 150 % of control; (dose: 4.0 mg/kg/injection, schedule: Q01DX009 (ip), vehicle: saline) 166 % of control; (dose: 6.0 mg/kg/injection, schedule: Q01DX009 (ip), vehicle: saline with Tween-80) 204 % of control; (dose: 6.0 mg/kg/injection, schedule: Q01DX009 (ip), vehicle: saline) 187 % of control; (dose: 6.25 mg/kg/injection, schedule: Q04DX003 (ip), vehicle: saline with Tween-80) 118 % of control. Further, the T/C (dose: 9.0 mg/kg/injection, schedule: Q01DX009 (ip), vehicle: saline) was 191 % of control.

Turning to `COc1ccc2[nH]c3c(c2c1)C(=O)c1ccncc1C3=O`, the T/C runs as follows: (dose: 37.5 mg/kg/injection, schedule: Q04DX002 (ip), vehicle: Klucel (hydroxypropylcellulose) (HPC)) 87 % of control; (dose: 75.0 mg/kg/injection, schedule: Q04DX002 (ip), vehicle: Klucel (hydroxypropylcellulose) (HPC)) 91 % of control.

With `Nc1c(C(=O)NCc2ccccc2)c2nc3c(C(=O)NCc4ccccc4)ccc(Br)c3oc-2c(Br)c1=O`, the T/C is, setting by setting: under setting [11], 98 % of control; under setting [12], 86 % of control; (dose: 200.0 mg/kg/injection, schedule: Q01DX005 (ip), vehicle: saline with Tween-80) 89 % of control.

On to `CCOC(=O)NOC1CCCCO1` (configuration not stated), for which the T/C was 91 % of control under setting [10]; 105 % of control (dose: 100.0 mg/kg/injection, schedule: Q01DX009 (ip), vehicle: saline); 104 % of control (dose: 200.0 mg/kg/injection, schedule: Q01DX009 (ip), vehicle: saline).

For `CCN(CC)CCCNc1c2c(nc3c(Cl)cccc13)CCCC2`, the T/C is 100 % of control under setting [11] and 100 % of control under setting [12].

On to `CCC(c1ccc(OC)cc1)C(NCC(=O)N/N=C/c1ccc(O)c(OC)c1)c1ccc(OC)cc1` (configuration not stated), for which the T/C was 107 % of control (dose: 100.0 mg/kg/injection, schedule: Q01DX001 (ip), vehicle: saline with Tween-80); 107 % of control (dose: 200.0 mg/kg/injection, schedule: Q01DX001 (ip), vehicle: saline with Tween-80); 101 % of control (dose: 400.0 mg/kg/injection, schedule: Q01DX001 (ip), vehicle: saline with Tween-80).

Take `Nc1ncnc2c1c(-c1ccccc1)cn2-c1ccc(Cl)cc1`: the T/C is 104 % of control under setting [7], 99 % of control under setting [8] and 88 % of control under setting [9].

For the compound `CN(CCN(C)C(=S)Cl)C(=S)Cl`, the T/C is 99 % of control under setting [5]; 100 % of control under setting [6]; 96 % of control (dose: 200.0 mg/kg/injection, schedule: Q01DX009 (ip), vehicle: Klucel (hydroxypropylcellulose) (HPC)).

The record behind these values is PubChem BioAssay AID330 (DTP/NCI, 2004).
